According to patent publication US12156860B2, “Disorders implicating PUFA oxidation” (BioJiva LLC, priority 2011, dated 2024):

Assays:
NASH (MCD diet) rats = assay: NASH induced by methionine and choline deficient diet; type: in vivo, Rattus norvegicus, Wistar; details: daily over three months
Procedure: (§1) Fifty male heterozygous rats, 45-days-old, from the Rattus norvegicus species and Wistar lineage are kept in polypropylene cages, in groups of five animals, under a 12 h-clear/dark cycle and under controlled temperature conditions. The induction of NASH is carried out through a diet deficient in methionine and choline (MCD) according to known procedures (See Rogers A E, Newberne P M. Alcoholic and nutritional fatty liver and cirrhosis. Am J Pathol. 1973; 73:817-20). […] During the study period, the animals are weighed on a weekly basis and the drugs dose is readjusted as necessary. On the first day of the study, besides determining the animals' weight, their blood is collected through retro-orbital plexus puncture for biochemical analysis: alanine-aminotransferase (ALT) and aspartate-aminotransferase (AST) (colorimetric test, using the Labtest kit). One day after concluding the induction period and compound administration (90 days), animals are sacrificed by decapitation. Once more, each animal's blood is collected for biochemical analysis. Then, laparotomy with total hepatectomy and liver preparation are carried out for lipoperoxidation (LPO) and histological analysis. Liver tissue samples are analyzed using the thiobarbituric-acid reactant substance (TBARS) measurement according to known methods (See Lowry et al. Protein measurement with the folin phenol reagent. J Biol Chem. 1951; 193:265-75) and the results are expressed in nmol of malondialdehyde/mg of protein. Slides with liver fragments are also dyed with hematoxilin-eosine and picrosirius, in order to evaluate the fibrosis level, and with Perls to evaluate the presence of iron stores, having been examined by an only pathologist blinded to the animals' data. The minimum histological criterion for NASH diagnosis is the presence of hepatocellular ballooning-related steatosis, involving zone 3 and lobular inflammatory infiltrate. Mallory corpuscles and sinusoidal fibrosis, involving zone 3 might be present or not. The graduation of both necroinflammatory and fibrosis activity is carried out according to known classifications (See Brunt E M, Janney C G, Di Bisceglie A M, Neuschwander-Tetri B A, Bacon B R. Nonalcoholic steatohepatitis: a proposal for grading and staging the histological lesions. Am J Gastroenterol. 1999; 94:2467-74).

[1] = system: alcoholic liver disease rats; assay: Alcoholic liver disease and cirrhosis induced by 5% ethanol diet; type: in vivo, Rattus norvegicus, Wistar; details: 5% ethanol diet rats, daily over three months
Procedure: as §1, with “alcoholic liver disease and cirrhosis” for “NASH”, “containing 5% ethanol […].” for “deficient in methionine and choline (MCD) according to known procedures (See Rogers A E, Newberne P M. Alcoholic and nutritional fatty liver and cirrhosis. Am J Pathol. 1973; 73:817-20).”, “days), the” for “days),”, “data.” for “data. The minimum histological criterion for NASH diagnosis is the presence of hepatocellular ballooning-related steatosis, involving zone 3 and lobular inflammatory infiltrate. Mallory corpuscles and sinusoidal fibrosis, involving zone 3 might be present or not. The graduation of both necroinflammatory and fibrosis activity is carried out according to known classifications (See Brunt E M, Janney C G, Di Bisceglie A M, Neuschwander-Tetri B A, Bacon B R. Nonalcoholic steatohepatitis: a proposal for grading and staging the histological lesions. Am J Gastroenterol. 1999; 94:2467-74).”

[2H]C([2H])(/C=C\CCCCC)/C=C\CCCCCCCC(=O)O [D2-LA, 11,11-Dideutero-cis,cis-9,12-Octadecadienoic acid]
amount of MDA in liver samples (TBARS) (NASH (MCD diet) rats): reduce the amount of MDA found in liver samples | histological signs of NASH (NASH (MCD diet) rats): reverse the histological signs of NASH | amount of MDA in liver samples (TBARS) [1]: reduce the amount of MDA found in liver samples | histological signs of fatty liver disease [1]: reverse the histological signs of fatty liver disease
